Measured values reported in patent publication US7056707B2, “Bioactive compound and its isolation and method of treatment for lipoxygenase inhibition and as free radical scavenging agent” (Council of Scientific and Industrial Research, priority 2002, dated 2006).
“Also recorded” adds a separate entry of the source.

How the values were obtained:
[1] = target: T1, purified soybean lipoxygenase (LOX-1) (Glycine max, UniProt P08170); experiment: Soybean lipoxygenase (LOX-1) inhibition, absorbance at 234 nm; type: biochemical; details: as stated in embodiment b50; read-out: IC50 against purified soybean lipoxygenase
T1 construct: Soybean lipoxygenase (LOX-1) is purified according to the method of Axelrod et al; from tissue; host or cells: soybean seeds (Hardee variety), dehulled and defatted
T1 sequence (P08170 1-839): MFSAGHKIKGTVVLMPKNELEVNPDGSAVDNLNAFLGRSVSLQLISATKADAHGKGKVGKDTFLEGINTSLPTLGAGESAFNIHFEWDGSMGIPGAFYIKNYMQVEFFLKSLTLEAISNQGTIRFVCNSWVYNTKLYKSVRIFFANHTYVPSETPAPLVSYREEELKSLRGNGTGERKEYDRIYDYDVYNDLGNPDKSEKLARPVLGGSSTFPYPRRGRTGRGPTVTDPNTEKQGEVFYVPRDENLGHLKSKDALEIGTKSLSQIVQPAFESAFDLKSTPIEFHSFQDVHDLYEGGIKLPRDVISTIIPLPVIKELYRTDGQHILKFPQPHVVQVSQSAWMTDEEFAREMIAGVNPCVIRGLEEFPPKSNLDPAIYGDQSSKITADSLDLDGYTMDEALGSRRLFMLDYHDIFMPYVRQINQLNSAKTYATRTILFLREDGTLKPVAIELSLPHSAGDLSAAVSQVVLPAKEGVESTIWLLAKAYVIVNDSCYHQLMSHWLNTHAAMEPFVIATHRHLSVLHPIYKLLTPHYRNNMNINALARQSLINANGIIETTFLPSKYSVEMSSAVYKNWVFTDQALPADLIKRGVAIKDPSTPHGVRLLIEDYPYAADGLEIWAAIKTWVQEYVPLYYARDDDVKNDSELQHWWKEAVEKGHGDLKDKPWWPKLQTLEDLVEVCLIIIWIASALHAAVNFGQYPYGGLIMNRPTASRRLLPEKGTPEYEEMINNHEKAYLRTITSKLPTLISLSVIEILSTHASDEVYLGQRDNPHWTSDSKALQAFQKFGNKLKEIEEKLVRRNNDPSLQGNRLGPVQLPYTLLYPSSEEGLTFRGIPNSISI
Procedure: Soybean lipoxygenase (LOX-1) is purified according to the method of Axelrod et al., lipoxygenase from soybeans. Methods in Enzymology 1981, 71, 441–451, using the Hardee variety of soybean, after dehulling and defatting by hexane. The substrate, sodium linoleate (10 mM) is prepared as follows:
To 70 mg of linoleic acid an equal weight of Tween-20 and 4 ml of oxygen free water is added and homogenized by drawing back and forth in a pasture pipette, avoiding air bubbles. Sufficient quantity of 0.5 N NaOH is added to this to yield a clear solution. The resulting sodium linoleate is divided into 1–2 mL portions in small screw cap vials, flushed with N2 before closing, and keep frozen until needed. Enzyme reaction is carried out at 25° C. in a quartz cuvette with a 1 cm light path. The assay mixture contained (2.975−x) ml of borate buffer (0.2 M, pH 9.0), 0.025 ml of sodium linoleate substrate, and x mL of enzyme. After each addition the mixture is stirred with a few strokes of a plastic paddler. The reference cuvette contained no enzyme. Absorption at 234 nm is recorded, and the reaction rate is determined from the slope of the straight-line portion of the curve.

[2] = target: T2, crude rat lens aldose reductase (Rattus norvegicus, UniProt P07943); experiment: Rat lens aldose reductase inhibition, decrease in absorbance at 340 nm; type: biochemical; details: as stated in embodiment b50; read-out: IC50 against crude rat lens aldose reductase
T2 construct: from tissue; host or cells: rat eye lens homogenate, 10,000 r.p.m. supernatant
Procedure: Lens are collected from rat eyes and homogenised with sodium, potassium phosphate buffer (0.135 M, pH 7.0) containing 0.5 mM of phenyl methyl sulphonyl fluoride and 10 mM of p-mercaptoethanol. The homogenate is centrifuged at 10,000 r.p.m for 30 minutes at 4° C. The supernatant is taken as enzyme source. Enzyme reaction is carried out at 25° C. in a quartz cuvette with a 1-cm light path. The assay mixture contained 100 μL of nicotinamide adenine dinucleotide phosphate tetra sodium salt (from a stock solution of 9.6 mM), 100 μL of DL-glyceraldehyde (from a stock solution of 250 mM), 10 μL of inhibitor dissolved in dimethyl sulphoxide, sodium-potassium-phosphate buffer (0.135 M, pH 7.0) to make up the total volume to […] and the reaction is initiated by the addition of 200 μL of enzyme solution. The enzyme reaction is monitored by the decrease in absorbency at 340 nm and compared with enzyme reaction without inhibitor.

[3] = Solubility in solvents; type: physicochemical
Source text: The compound is amorphous yellow powder.

In the case of `C/C=C/c1c(C)c(OC)c(C(=O)O)c(C(N)=O)c1O` [compound 1, 2-amido, 3-hydroxy, 4-propene, 5-methyl, 6-methoxy benzoic acid], the IC50 [1] is reported as 79 µM, the IC50 [2] is reported as 69 µM and the “solubility in chloroform and hexane” value ([3]; chloroform, hexane) is reported as “sparingly soluble; also recorded: slightly soluble”. The “solubility in organic solvents” value ([3]; ethanol, methanol, ethyl acetate, dimethyl sulphoxide) was “soluble”, the “solubility in aqueous alkaline solution” value ([3]; sodium bicarbonate, sodium carbonate, sodium hydroxide solution (b24 also potassium bicarbonate, potassium carbonate, lithium hydroxide, potassium hydroxide)) was “soluble” and the solubility in water ([3]; water) was “insoluble”.
